Measurements taken from publication PMC10350920, “Development of a 2,4-Diaminothiazole Series for the Treatment of Human African Trypanosomiasis Highlights the Importance of Static–Cidal Screening of Analogues” (Journal of Medicinal Chemistry, 2023).
Read-outs that look alike come from different tables or passages of the source.

What was measured:
[1] = system: human MRC-5 fibroblasts; assay: Mammalian cell counter screen (MRC-5); format: cell-based; conditions: for SI: selectivity index (EC50 MRC5/EC50 T. brucei)
Method: (§1) Drug sensitivity assays with BSF T. b. brucei “single marker” S427 and human MRC-5 fibroblasts were conducted as previously described.[43]

[2] = Mammalian cell counter screen (MRC-5); format: cell-based, human; conditions: human, MRC-5 fibroblasts; mean values; number of replicates in parentheses
Method: as §1

[3] = system: TbGSK3; parameters: method as in PMID 23776181; conditions: recombinant enzyme, previously established; cited from earlier work
[4] = Mouse liver microsomal intrinsic clearance; format: in vitro ADME
Method: Test compounds (0.5 μM) were incubated with female CD1 mouse liver microsomes (Xenotech LLC; 0.5 mg mL^–1 50 mM potassium phosphate buffer, pH 7.4), and the reaction started with the addition of excess NADPH (8 mg mL^–1 50 mM potassium phosphate buffer, pH 7.4). Immediately, at 0 min, and then at 3, 6, 9, 15, and 30 min, an aliquot (50 μL) of the incubation mixture was removed and mixed with acetonitrile (100 μL) to stop the reaction. The internal standard was added to all samples, the samples were centrifuged to sediment the precipitated protein, and the plates were then sealed prior to UPLC–MS/MS analysis using a Quattro Premier XE (Waters Corporation, USA). XLfit (IDBS, UK) was used to calculate the exponential decay and consequently the rate constant (k) from the ratio of the peak area of the test compound to the internal standard at each time point. The rate of intrinsic clearance (CLint) of each test compound was then calculated using the following calculation [drawing 3] where V (mL mg^–1 protein) is the incubation volume mg^–1 protein added and the microsomal protein yield is taken as 52.5 mg protein g^–1 liver. Verapamil (0.5 μM) was used as a positive control to confirm acceptable assay performance.

[5] = system: BSF T. b. brucei “single marker” S427; assay: Drug sensitivity assay with bloodstream-form T. brucei; format: cell-based; conditions: Trypanosoma brucei; mean values; number of replicates in parentheses
Method: as §1

[6] = Equilibrium dialysis, free fraction in plasma; format: in vitro ADME, mouse; conditions: matrix not given; for fraction unbound at 5 h, 10 μg mL^–1: CD1, mouse, plasma, pH 7.4, read-out: Fu (free fraction)
Method: In brief, a 96-well equilibrium dialysis apparatus was used to determine the free fraction in plasma and the brain (HT Dialysis LLC, Gales Ferry, CT). Isotonic buffer was prepared using 8.69 g of Na2HPO4, 1.9 g of KH2PO4, and 4.11 g of NaCl dissolved in 1 L of Milli-Q water, and the pH was adjusted to 7.4. Artificial CSF was prepared using 3.652 g of NaCl, 93.2 mg of KCl, 119.96 mg of MgCl2, 92.61 mg of CaCl2, and 268 mg of Na2HPO4 heptahydrate dissolved in 0.5 L of water, and the pH was adjusted to 7.4. Membranes [12–14 (plasma) or 6–9 (brain) kDA cutoff] were conditioned in deionized water for 60 min, followed by conditioning in 80:20 deionized water/ethanol for 20 min, and then rinsed in isotonic buffer (plasma) or […] (brain) before use. Female CD1 mouse plasma was defrosted and centrifuged for 10 min at 3000 rpm (Allegra X12-R, Beckman Coulter, USA). The control mouse brain was homogenized in two volumes of artificial CSF in a Covaris S2 acoustic homogenizer. Plasma or brain homogenate was spiked with the test compound (10 μg mL^–1), and 150 μL aliquots (n = 3 replicate determinations) were loaded into the 96-well equilibrium dialysis plate. Dialysis versus 150 μL of isotonic buffer (plasma) or artificial CSF (brain) was carried out for 5 h in a temperature-controlled incubator at 37 °C (Barworld Scientific Ltd, UK) using an orbital microplate shaker at 125 rpm (Barworld Scientific Ltd, UK). At the end of the incubation period, aliquots of plasma/homogenized brain or buffer were transferred to a clean 96-well plate, and the composition in each well was balanced with control fluid, such that the volume of buffer to the matrix was the same. Sample extraction was performed by the addition of 400 μL of acetonitrile containing an appropriate internal standard. Samples were allowed to mix for 1 min and then centrifuged at 3000 rpm in 96-well blocks for 10 min (Allegra X12-R, Beckman Coulter, USA). All samples were analyzed by means of UPLC/MS/MS on a Quattro Premier XE or Micro TQs mass spectrometer (Waters Corporation, USA). The unbound fraction was determined as the ratio of the peak area in the buffer to that in the matrix.

[7] = Human microsomal intrinsic clearance; format: in vitro ADME; conditions: second value of mouse/human cell
[8] = Mouse brain penetration (brain:blood ratio); format: in vivo, female NMRI mice; conditions: female, NMRI, mouse, brain and blood, 10 mg kg^–1; mice, bolus of test compound, total compound; read-out: brain/blood (B/B) ratio
Method: Medicines for HAT are required to treat both acute and chronic infections, where parasites pass through the blood/brain barrier and enter the CNS. With this in mind, mice were dosed with an […] bolus of our test compounds, and compound concentrations in blood and brain were determined by UPLC–MS/MS. […] The brain fraction unbound was 0.0063 for 16 and 0.0313 for 38. Brain penetration of the series as a whole tracked with the generally accepted rules of CNS penetration, with a lower topological PSA (TPSA) and molecular weight compounds having an increased B/B ratio (Table S2 and Figure S1). However, the link between log P and the B/B ratio was slightly less convincing. […] This difference could be explained by 18 being a substrate for the P-glycoprotein efflux pump.
Each compound was dosed as an IV bolus at 10 mg kg^–1 dissolved in 15% solutol/Milli-Q (dose volume 10 mL kg^–1) to female NMRI mice (n = 3). At 30 min following the IV bolus of the test compound, mice (n = 3/time point) were placed under terminal anesthesia with isoflurane. A blood sample was taken by cardiac puncture and added to two volumes of distilled water, and the brain was removed. […] For each mouse at each time point, the concentration in the brain (ng g^–1) was divided by the concentration in blood (ng mL^–1) to give a brain: blood ratio.

[9] = Kinetic aqueous solubility (laser nephelometry); format: physicochemical; conditions: Milli-Q water with 2.5% DMSO
Method: The kinetic aqueous solubility of the test compounds was measured using laser nephelometry. Compounds were subject to serial dilution from 10 to 0.5 mM in DMSO. An aliquot was then mixed with Milli-Q water to obtain an aqueous dilution plate with a final concentration range of 13–250 μM, with a final DMSO concentration of 2.5%. Triplicate aliquots were transferred to a flat-bottomed polystyrene plate which was immediately read on the NEPHELOstar (BMG Lab Technologies). The amount of laser scatter caused by insoluble particulates (relative nephelometry units, RNUs) was plotted against compound concentration using a segmental regression fit, with the point of inflection being quoted as the compound’s aqueous solubility (μM).

[10] = system: T. brucei RES I; assay: Drug sensitivity, compound 38-resistant clone RES I; format: cell-based, T. b. brucei; conditions: for EC50: Trypanosoma brucei, read-out: EC50, RES I; for fold resistance, RES I: relative to the parental wild-type, in brackets
Method: (§2) Drug sensitivity assays were carried out with BSF T. b. brucei “single marker” S427 or BSF T. b. brucei, Lister 427, MiTat 1.2, clone 221a 2T1 cells,[45] cells grown at 37 °C with 5% CO2 in an HMI-9T medium[46] as previously described.[47] 2T1 cells were initially maintained with 1 μg mL^–1 puromycin and 1 μg mL^–1 phleomycin prior to transfection or 2.5 μg mL^–1 hygromycin and 1 μg mL^–1 phleomycin after transfection. Induction of overexpression was achieved by the addition of 1 μg mL^–1 tetracycline to the culture medium.
(§3) Compound-resistant cell lines were generated by subculturing a clone of T. brucei in the continuous presence of 38. Starting at sublethal concentrations, drug concentrations in two independent cultures were increased in a stepwise manner, usually 2-fold. When parasites were able to survive and grow in concentrations of drugs equivalent to more than 10 times the established EC50 value, the resulting cell lines were cloned by limiting dilution in the presence of the compound. Two clones (RES I-II) were selected for further biological study. A standard alkaline lysis protocol was used to isolate genomic DNA from compound-resistant bloodstream T. brucei parasites (∼1 × 10^8). Whole genome sequencing was performed using a DNB-seq next-generation sequencing platform (BGI, Hong Kong). Sequencing reads (150 bp) were aligned to the T. brucei TREU927 genome (v39; tritrypDB) using Bowtie2[48] and Samtools[49] software. […] Samtools and BCFtools[52] (mpileup) were used to call SNP and indels compared with the wild-type starter clone, where the overall quality score (QUAL) was >100. Artemis[50] was used to analyze chromosome and gene copy number variation, as well as visualization of SNPs.

[11] = system: Tb927.8.6290 overexpressing cell lines (A258P); assay: Drug sensitivity, line overexpressing Tb927.8.6290 A258P; format: cell-based, T. b. brucei; conditions: for EC50: Trypanosoma brucei
Method: as §2
(§4) The following primers were used to PCR amplify Tb927.8.6290 from genomic DNA isolated from wild-type and 38-resistant trypanosomes 5′-[…]-3′ (PacI site in bold) and 5′-[…]-3′ (BamHI site in bold). The PCR products (1272 bp) were then cloned into the pRPa plasmid.[53] The accuracy of the plasmid constructs was confirmed by in-house Sanger sequencing and then linearized with AscI prior to transfection. The linearized plasmids were introduced into 2T1 T. b. brucei cells following removal of puromycin from the media and selected with 2.5 μg mL^–1 hygromycin and 1 μg mL^–1 phleomycin. Two independent clones were selected for further studies.

[12] = system: T. brucei wild-type; assay: Drug sensitivity, wild-type parental line; format: cell-based, T. b. brucei; conditions: Trypanosoma brucei; weighted mean of ≥3 independent experiments
Method: as §2, §3

[13] = system: Tb927.8.6290 overexpressing cell lines (WT); assay: Drug sensitivity, line overexpressing Tb927.8.6290 WT; format: cell-based, T. b. brucei; conditions: for EC50: Trypanosoma brucei
Method: as §2, §4

[14] = system: T. brucei RES II; assay: Drug sensitivity, compound 38-resistant clone RES II; format: cell-based, T. b. brucei; conditions: for EC50: Trypanosoma brucei, read-out: EC50, RES II; for fold resistance, RES II: relative to the parental wild-type, in brackets
Method: as §2, §3

[15] = system: Tb927.8.6290 overexpressing cell lines (V241F/A258V); assay: Drug sensitivity, line overexpressing Tb927.8.6290 V241F/A258V; format: cell-based, T. b. brucei; conditions: for EC50: Trypanosoma brucei
Method: as §2, §4

| Structure (SMILES) | SI [1] | EC50 [2] [nM] | CLint (mouse) [4] [mL·min/g] | EC50 [5] [nM] | CLint (human) [7] [mL·min/g] | other results |
| --- | --- | --- | --- | --- | --- | --- |
| CC(C)(C)C(=O)c1sc(NC2CCCCC2)nc1N [Compound 1, 1-(4-Amino-2-(cyclohexylamino)thiazol-5-yl)-2,2-dimethylpropan-1-one] | >100 | > 50000 | 2.5 | 470 | – | selectivity over MRC-5 cell line [1]: ~200 fold; IC50 [3]: 12000 nM |
| Nc1nc(N[C@H]2CC[C@H](O)CC2)sc1C(=O)c1c(F)cccc1F [Compound 16A] | – | – | – | 360 | – | fraction unbound at 5 h, 10 μg mL^–1 [6]: 0.39 |
| Nc1nc(NC2CCCC(O)C2)sc1C(=O)c1c(F)cccc1F (centres unmarked) [Compound 16B] | – | – | 1.8 | 948 | – | fraction unbound at 5 h, 10 μg mL^–1 [6]: 0.22 |
| Nc1nc(NC2CCCCC2)sc1C(=O)c1ccc(OC(F)F)cc1 [Compound 26, (4-Amino-2-(cyclohexylamino)thiazol-5-yl)(4-(difluoromethoxy)phenyl)methanone] | – | 22000 | 2.9 | 60 | 0.8 | Fu (free fraction) [6]: low |
| Nc1nc(Nc2ccccc2)sc1C(=O)c1ccccc1 [Compound 34, (4-Amino-2-(phenylamino)thiazol-5-yl)(phenyl)methanone] | 69 | 11000 | 12 | 160 | < 0.5 | selectivity over MRC-5 cell line [1]: ~100 fold |
| CC(C)CC(=O)c1sc(Nc2ccc(F)c(F)c2)nc1N [Compound 37, 1-(4-Amino-2-((3,4-difluorophenyl)amino)thiazol-5-yl)-3-methylbutan-1-one] | >250 | > 50000 | 5.9 | 200 | 3.2 | Kp at 30 min [8]: 4.7 |
| CC(OCC(=O)c1sc(Nc2ccn(C)n2)nc1N)C(F)(F)F (centres unmarked) [Compound 55, 1-(4-Amino-2-((1-methyl-1H-pyrazol-3-yl)amino)thiazol-5-yl)-2-((1,1,1-trifluoropropan-2-yl)oxy)ethan-1-one] | 50 | 9400 | 10.8 | 190 | – | solubility [9]: > 100 µg/mL |
| CC(OCC(=O)c1sc(Nc2ccc(C(F)(F)F)nc2)nc1N)C(F)(F)F (centres unmarked) [Compound 56, 1-(4-Amino-2-((6-(trifluoromethyl)pyridine-3-yl)amino)thiazol-5-yl)-2-((1,1,1-trifluoropropan-2-yl)oxy)ethanone] | 96 | > 50000 | – | 520 | – | solubility [9]: > 100 µg/mL |
| Nc1nc(Nc2ccccc2)sc1C(=O)c1c(F)cccc1F [Compound 69, reference compound] | – | – | – | – | – | EC50 [10]: 360 ± 16 nM; fold resistance, RES I [10]: 2; EC50 ([11]; read-out: EC50, A258P +TET): 1400 ± 35 nM; EC50 ([11]; read-out: EC50, A258P –TET): 200 ± 9 nM; fold shift, A258P ([11]; −TET vs +TET EC50, in brackets): 7; EC50 [12]: 150 ± 3 nM; EC50 ([13]; read-out: EC50, WT +TET): 410 ± 19 nM; EC50 ([13]; read-out: EC50, WT –TET): 170 ± 4 nM; fold shift, WT ([13]; −TET vs +TET EC50, in brackets): 2; EC50 [14]: 390 ± 28 nM; fold resistance, RES II [14]: 3; EC50 ([15]; read-out: EC50, V241F/A258V +TET): 1200 ± 51 nM; EC50 ([15]; read-out: EC50, V241F/A258V –TET): 180 ± 11 nM; fold shift, V241F/A258V ([15]; −TET vs +TET EC50, in brackets): 6 |
| O=C1Nc2ccc3ncsc3c2/C1=C/Nc1ccc(S(=O)(=O)Nc2ccccn2)cc1 [GW8510] | – | – | – | – | – | EC50 [10]: 65 ± 4 nM; fold resistance, RES I [10]: 1; EC50 [12]: 120 ± 8 nM; EC50 [14]: 110 ± 4 nM; fold resistance, RES II [14]: 1 |
